Laboratory results taken from article PMC3726336, “Product inhibition of cellulases studied with ^14C-labeled cellulose substrates” (Biotechnology for Biofuels, 2013).

Columns and labels:
TrCel7A = target: T1, TrCel7A (Trichoderma reesei, UniProt P62694); test: Inhibition of synergistic hydrolysis of 14C-BC by TrCel7A (supplemented with EG TrCel5A); type: biochemical; conditions: IC50 for cellobiose, 14C-BC substrate, average over time points
T1 construct: TrCel7A was purified from the culture filtrate of Tr QM 9414 as described previously; made in house; host or cells: Trichoderma reesei QM 9414 culture filtrate (native producer)
Description: To study the cellobiose inhibition of GH7 CBHs, the synergistic hydrolysis of ^14C-BC in the presence of added cellobiose was followed (Figure 3, Additional file 1: Figures S1 and S2). Because the cellobiose inhibition of the EG TrCel5A is much weaker than that of GH7 CBHs, the inhibition of synergistic hydrolysis apparently reflects the inhibition of CBH. The strength of cellobiose inhibition was analyzed using plots of (DCB/DCB=0) versus [cellobiose], where DCB and DCB=0 represent the degree of conversion of ^14C-BC in the presence and absence of cellobiose, respectively (Figure 4, Additional file 1: Figure S3). […]
where [CB] is the concentration of cellobiose; [^14CBC] is the concentration of ^14C-BC used in the experiment; and C1, C2 and H are empirical constants. Equation 5 differs from Equation 1 by the presence of constant H. H was included to improve the fit and is a constant that accounts for the background radioactivity (the degree of conversion that is independent of CBH). The degree of conversion resulting from the activity of the EG was measured in a separate experiment (Additional file 1: Figure S4) and was subtracted from the degree of conversion resulting from the synergistic hydrolysis. […] Provided with the values of C1, C2 and H, the value of IC50 was calculated as follows: […]

CtCel7A = CtCel7A (Chaetomium thermophilum, UniProt A7WNU1); test: Cellobiose inhibition of MUL hydrolysis by CtCel7A; type: biochemical; conditions: MUL substrate (5 μM)
Source text: The cellobiose inhibition of GH7 CBHs is most often studied on low-Mw model substrates. However, it has been shown that the inhibition of CBHs acting on low-Mw substrates appears to be much stronger than that on cellulose substrates. The Ki values for cellobiose inhibition of GH7 CBHs measured on low-Mw substrates are in the micromolar range [44, 51, 52], whereas those measured on cellulose are in the low- to high-millimolar range [28, 31, 32]. […] Unfortunately, the inhibition of this enzyme on cellulose has not been studied. We also studied the cellobiose inhibition of GH7 CBHs acting on MUL. The initial rates of MUL hydrolysis measured in the presence and absence of added cellobiose were first analyzed according to Equation 1, and the IC50 values were found using Equation 2. […] The inhibition of MUL hydrolysis is attributable to the binding of cellobiose to the product sites (+1/+2) of TrCel7A [52]. […]
For the inhibition of enzyme acting on the low-Mw substrate, the initial rates of the hydrolysis of MUL in the presence and absence of added cellobiose were followed. […] Reactions were stopped by the addition of NH3 (final concentration 0.1 M), and the released 4-methylumbelliferone was quantified by fluorescence using excitation and emission wavelengths of 360 nm and 450 nm, respectively.

Chain of CtCel7A (A7WNU1 entry or part of it): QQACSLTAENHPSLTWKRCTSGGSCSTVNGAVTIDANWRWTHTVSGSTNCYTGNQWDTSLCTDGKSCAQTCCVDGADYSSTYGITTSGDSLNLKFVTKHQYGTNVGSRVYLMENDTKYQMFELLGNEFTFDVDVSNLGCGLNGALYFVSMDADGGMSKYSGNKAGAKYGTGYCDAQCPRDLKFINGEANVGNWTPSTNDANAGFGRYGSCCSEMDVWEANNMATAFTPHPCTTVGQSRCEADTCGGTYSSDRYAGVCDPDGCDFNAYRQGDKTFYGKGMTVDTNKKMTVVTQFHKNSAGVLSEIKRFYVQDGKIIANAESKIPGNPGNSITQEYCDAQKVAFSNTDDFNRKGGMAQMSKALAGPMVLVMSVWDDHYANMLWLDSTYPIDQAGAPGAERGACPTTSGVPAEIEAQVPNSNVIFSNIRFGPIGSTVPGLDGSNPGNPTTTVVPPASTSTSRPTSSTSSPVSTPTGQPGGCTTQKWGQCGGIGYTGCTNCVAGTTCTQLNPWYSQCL
T1 sequence (P62694 18-513): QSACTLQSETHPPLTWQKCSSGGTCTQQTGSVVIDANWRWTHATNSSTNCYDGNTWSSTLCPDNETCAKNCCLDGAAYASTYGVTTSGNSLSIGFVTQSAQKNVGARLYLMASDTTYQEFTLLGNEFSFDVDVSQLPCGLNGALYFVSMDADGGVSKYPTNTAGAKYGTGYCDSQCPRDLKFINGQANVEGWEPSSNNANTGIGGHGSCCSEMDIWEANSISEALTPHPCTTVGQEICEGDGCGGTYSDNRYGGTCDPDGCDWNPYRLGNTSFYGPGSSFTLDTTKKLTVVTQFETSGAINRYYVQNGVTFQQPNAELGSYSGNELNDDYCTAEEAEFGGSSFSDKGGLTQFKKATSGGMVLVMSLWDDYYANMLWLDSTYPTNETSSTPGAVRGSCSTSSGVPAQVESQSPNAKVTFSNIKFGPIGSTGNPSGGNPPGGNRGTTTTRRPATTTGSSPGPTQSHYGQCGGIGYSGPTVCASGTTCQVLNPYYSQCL

`O=C[C@H](O)[C@@H](O)[C@H](O[C@@H]1O[C@H](CO)[C@@H](O)[C@H](O)[C@H]1O)[C@H](O)CO` [cellobiose, Cellobiose] was tested, and the IC50 (TrCel7A; 35°C, IC50 increased with hydrolysis time) was 680 ± 240 µM, the IC50 (TrCel7A; 50°C) was 2610 ± 100 µM and the Ki (CtCel7A; 35°C) was 110 µM. The Ki (CtCel7A; 50°C) was 346 µM.
